Here are results for 16 molecules from patent US8039430B2 (University of Wollongong, priority 2005, dated 2011).

Like-named read-outs stand apart in the source and are kept apart here. Some results are limits rather than exact numbers.

Assay [1] deals with E.f820. Put plainly: Antibacterial screening (MIC) of compounds of Example 2, E.f820. The format is cell-based, Enterrococci faecium. To be noted: Example 2 compounds, fully vancomycin-resistant strain E.f820; for MIC: read-out: Antibacterial activity μg/mL, E.f820. As for the experimental part:
(§1) • All assays used the Staphylococcus aureus strain ATCC 6538P. • Assays described in Chapter 5 additionally used the vancomycin-resistant enterococci and vancomycin-sensitive enterococci strains Ef243, Ef449, Ef820 and Ef487. Culture Media • Mueller-Hinton Broth Medium (MHB): MHB (Oxoid CM405) was prepared with final concentrations of […] MgCl2 and 2 μg/mL CaCl2. Culture medium was pre-warmed for approximately 2-3 h at 37° C. before use. • Mueller-Hinton Agar Medium (MHA): MMB containing 1.5% Agar (Merck Agar 1.01614). Maintenance of Bacteria • From a thawed cryovial, the bacteria was streaked onto MHA and the plate incubated overnight at 37° C. • From this plate, 10 cryovials were prepared by looping several colonies into 0.5 mL of 20% glycerol solution. The cryovials were immediately stored at −140° C. Preparation of Seed Cultures • A cryovial was removed from −140° C. storage and thawed at room temperature. • An MHA plate was streaked with a loopful of bacterial suspension and incubated overnight at 37° C. to create a parent plate (P1). • A daughter plate (D1) was streaked from the parent plate and incubated overnight at 37° C. […] The second parent plate (P2) was used to generate two additional daughter plates using the procedure outlined above before being discarded. • Cryovials were used twice to prepare parent plates (P1 and P2) before being discarded. […] A vancomycin control set (triplicate) and a compound negative control set (triplicate) were also included on each plate (FIG. 1). • The inoculated culture medium was incubated at 37° C. for 30 min, with shaking at 130 rpm. • Using a multichannel pipette, the contents of the first row were mixed before 50 μL was transferred to the second row. The pipette tips were changed and the process repeated by 50 μL of the mixed broth solutions in the second row being transferred to the third row. This process was repeated until the last row contained either the diluted test compound or a control (vancomycin or compound-negative). […] Antibacterial Testing of Compounds of Example 2 Introduction
(§2) The specific testing procedures and protocols are outlined in the section “Antibacterial Screening Methodology for the Compounds of Example 2”.
(§3) Vancomycin was used as the standard/control.

Assay [2] has as its system Staphylococcus aureus strain ATCC 6538P. Put plainly: Antibacterial screening (MIC) of compounds of Example 2, S. aureus, Mueller-Hinton broth. To be noted: S. aureus; for MIC: Staphylococcus aureus, ATCC6538P. The format is cell-based. The method, then:
Antibacterial Screening Methodology for Compounds of Example 2
as §1, §2
The antibacterial activity results are measured by minimum inhibitory concentration (MIC), which is the lowest concentration of compound necessary to prevent bacterial growth.

For assay [3], the system named is E.f987. Briefly: Antibacterial screening (MIC) of compounds of Example 2, E.f987. The format is cell-based, Enterococcus faecium. To be noted: Enterococcus faecium; Example 2 compounds; enterococci strain E.f987; read-out: Antibacterial activity μg/mL, E.f987.
Assay [4] relates to E.f449. Briefly: Antibacterial screening (MIC) of compounds of Example 2, E.f449. The format is cell-based, Enterococcus faecium. The following applies: Enterococcus faecium; Example 2 compounds; enterococci strain E.f449; read-out: Antibacterial activity μg/mL, E.f449. As for the experimental part:
as §1, §2, §3

Assay [5] deals with E.f243. Put plainly: Antibacterial screening (MIC) of compounds of Example 2, E.f243. The format is cell-based, Enterococcus faecium. To be noted: Enterococcus faecium; Example 2 compounds; enterococci strain E.f243; read-out: Antibacterial activity μg/mL, E.f243. The method, then: as §1, §2, §3
Setting [6] is: Example 2 compounds (linear cationic peptides), vancomycin-susceptible strain, read-out: Antibacterial activity μg/mL, S.a.

For `C=CCOc1ccc(C[C@H](NC(=O)[C@@H](CCCNC(=N)N)NC(=O)COc2ccc3ccccc3c2-c2c(OCC=C)ccc3ccccc23)C(=O)OC)cc1.Cl` (atropisomer, axis not shown) [Compound 120], the MIC was 62.5 µg/mL in assay [1]; 3.9 µg/mL in assay [2] (setting [6]); 62.5 µg/mL in assay [3]; 62.5 µg/mL in assay [4]; 62.5 µg/mL in assay [5].
With `C=CCOc1ccc(C[C@H](NC(=O)[C@@H](CCCNC(=N)N)NC(=O)COc2ccc3ccccc3c2-c2c(O)ccc3ccccc23)C(=O)OC)cc1.Cl` (atropisomer, axis not shown) [Compound 121, Methyl(2S,5R)-2-allyloxybenzyl-3,6-diaza-8-(2-[2′-hydroxy-{1,1′}-(S)-binaphthalen-2-yloxy])-5-(3-[guanidino]propyl)-4,7-dioxooctanoate], the MIC is 125 µg/mL in assay [1]; 7.8 µg/mL in assay [2] (setting [6]); > 125 µg/mL in assay [3]; 125 µg/mL in assay [4]; 125 µg/mL in assay [5].
In the case of `C=CCOc1ccc2ccccc2c1-c1c(OCC(=O)N[C@H](CCCCN)C(=O)N[C@H](CCCNC(=N)N)C(=O)N[C@@H](CC=C)C(=O)OCc2ccccc2)ccc2ccccc12.Cl.Cl` (atropisomer, axis not shown) [Compound 132], the MIC in assay [1] stood at 31.3 µg/mL; in assay [2] (setting [6]), 3.9 µg/mL; in assay [3], 62.5 µg/mL; in assay [4], 31.3 µg/mL; in assay [5], 31.3 µg/mL.
Regarding `C=CC[C@H](NC(=O)[C@@H](CCCNC(=N)N)NC(=O)[C@@H](CCCCN)NC(=O)COc1ccc2ccccc2c1-c1c(OC)ccc2ccccc12)C(=O)OCc1ccccc1.Cl.Cl` (atropisomer, axis not shown) [Compound 135], the MIC in assay [1] turned out to be 62.5 µg/mL; in assay [2] (setting [6]) it was 7.8 µg/mL; in assay [3], 125 µg/mL; in assay [4], 62.5 µg/mL; in assay [5], 125 µg/mL.
Take `C=CC[C@H](NC(=O)[C@@H](CCCNC(=N)N)NC(=O)[C@@H](CCCCN)NC(=O)COc1ccc2ccccc2c1-c1c(O)ccc2ccccc12)C(=O)OCc1ccccc1.Cl.Cl` (atropisomer, axis not shown) [Compound 136, Benzyl(2S,5R,8R)-2-allyl-3,6,9-triaza-8-(butylamino)-5-(3-guanidinopropyl)-11-(2-[2′-hydroxy-{1,1′}-(S)-binaphthalen-2-yloxy])-4,7,10-trioxoundecanoate dihydrochloride]: the MIC in assay [1] worked out at 62.5 µg/mL; in assay [2] (setting [6]) it was 7.8 µg/mL; in assay [3], 125 µg/mL; in assay [4], 62.5 µg/mL; in assay [5], 125 µg/mL.
As to `C=CC[C@H](NC(=O)[C@@H](CCCNC(=N)N)NC(=O)[C@@H](CCCCN)NC(=O)COc1ccc2ccccc2c1-c1c(OCCCc2ccccc2)ccc2ccccc12)C(=O)OCc1ccccc1.Cl.Cl` (atropisomer, axis not shown) [Compound 137], the MIC amounted to 31.3 µg/mL in assay [1]; 3.9 µg/mL in assay [2] (setting [6]); 62.5 µg/mL in assay [3]; 31.3 µg/mL in assay [4]; 62.5 µg/mL in assay [5].
As to `C=CC[C@H](NC(=O)[C@@H](CCCNC(=N)N)NC(=O)[C@@H](CCCCN)NC(=O)COc1ccc2ccccc2c1-c1c(OCCC(C)C)ccc2ccccc12)C(=O)OCc1ccccc1.Cl.Cl` (atropisomer, axis not shown) [Compound 138], the MIC in assay [1] was 15.6 µg/mL; in assay [2] (setting [6]), 3.9 µg/mL; in assay [3], 31.3 µg/mL; in assay [4], 15.6 µg/mL; in assay [5], 31.3 µg/mL.
For `CCCOc1ccc2ccccc2c1-c1c(OCC(=O)N[C@H](CCCCN)C(=O)N[C@H](CCCNC(=N)N)C(=O)N[C@@H](CCC)C(=O)OCc2ccccc2)ccc2ccccc12.Cl.Cl` (atropisomer, axis not shown) [Compound 141, Benzyl(2S,5R,8R)-3,6,9-triaza-8-(4-aminobutyl)-5-(3-guanidinopropyl)-4,7,10-trioxo-2-propyl-11-(2-[2′-3-(propyloxy)-{1,1′}-(S)-binaphthalen-2-yloxy])undecanoate], the MIC in assay [1] turned out to be 31.2 µg/mL; in assay [2] (setting [6]), 3.9 µg/mL; in assay [3], 62.5 µg/mL; in assay [4], 31.3 µg/mL; in assay [5], 31.3 µg/mL.
For `C=CCOc1ccc2ccccc2c1-c1c(OCC(=O)N[C@H](CCCNC(=N)N)C(=O)Nc2cccc(C(=O)OC)c2)ccc2ccccc12.Cl` (atropisomer, axis not shown) [Compound 156, Methyl(3R)-3-(6-(2-[2′-allyloxy-{1,1′}-(S)-binaphthalen-2-yloxy])-1,4-diaza-3-(3-guanidylpropyl)-2,5-dioxohexyl)benzoate hydrochloride], the MIC in assay [1] was determined as 62.5 µg/mL; in assay [2] (setting [6]), 3.9 µg/mL; in assay [3], 62.5 µg/mL; in assay [4], 125 µg/mL; in assay [5], 125 µg/mL.
As for `C=CCOc1ccc2ccccc2c1-c1c(OCC(=O)N[C@H](CCCNC(=N)N)C(=O)Nc2cccc(C(=O)OCc3ccccc3)c2)ccc2ccccc12.Cl` (atropisomer, axis not shown) [Compound 158, Benzyl(3R)-3-(6-(2-[2′-allyloxy-{1,1′}-(S)-binaphthalen-2-yloxy])-1,4-diaza-3-(3-guanidylpropyl)-2,5-dioxohexyl)benzoate hydrochloride], the MIC in assay [1] was 31.3 µg/mL; in assay [2] (setting [6]), 7.8 µg/mL; in assay [3] it was 62.5 µg/mL; in assay [4], 62.5 µg/mL; in assay [5] it was 62.5 µg/mL.
Turning to `C=CCOC(=O)c1cccc(NC(=O)[C@@H](CCCNC(=N)N)NC(=O)COc2ccc3ccccc3c2-c2c(OCC=C)ccc3ccccc23)c1.Cl` (atropisomer, axis not shown) [Compound 160, Allyl(3R)-3-(6-(2-[2′-allyloxy-{1,1′}-(S)-binaphthalen-2-yloxy])-1,4-diaza-3-(3-guanidinopropyl)-2,5-dioxohexyl)benzoate hydrochloride], the MIC amounted to 62.5 µg/mL in assay [1]; 7.8 µg/mL in assay [2] (setting [6]); 125 µg/mL in assay [3]; 62.5 µg/mL in assay [4]; 62.5 µg/mL in assay [5].
Turning to `C=CCOc1ccc2ccccc2c1-c1c(OCC(=O)N[C@H](CCCNC(=N)N)C(=O)Nc2cccc(C(=O)NOCc3ccccc3)c2)ccc2ccccc12.Cl` (atropisomer, axis not shown) [Compound 162], the MIC in assay [1] is > 125 µg/mL; in assay [2] (setting [6]), 3.9 µg/mL; in assay [3], > 125 µg/mL; in assay [4], > 125 µg/mL; in assay [5] it was > 125 µg/mL.
As to `CCCOc1ccc2ccccc2c1-c1c(OCC(=O)N[C@H](CCCNC(=N)N)C(=O)Nc2cccc(C(=O)NO)c2)ccc2ccccc12.Cl` (atropisomer, axis not shown) [Compound 164], the MIC in assay [1] is > 125 µg/mL; in assay [2] (setting [6]) it was 7.8 µg/mL; in assay [3], > 125 µg/mL; in assay [4], > 125 µg/mL; in assay [5], > 125 µg/mL.
For `C=CCOc1ccc(C[C@H](NC(C)=O)C(=O)N[C@H](CCCCN)C(=O)N[C@@H](Cc2ccc(OCC=C)cc2)C(=O)OC)cc1.Cl` [Compound 83, Methyl(2S,5R,8S)-2,8-di(4-allyloxybenzyl)-5-(4-aminobutyl)-3,6,9-triaza-4,7,10-trioxoundecanoate hydrochloride], in assay [2] (Example 2 compounds, 18 h, 37° C., read-out: Antibacterial activity (MIC μg/mL)), the MIC amounted to 125 µg/mL.
Turning to `C=CCOc1ccc2ccccc2c1-c1c(OCC(=O)N[C@H](CCCN)C(=O)Nc2cccc(C(=O)NOCc3ccccc3)c2)ccc2ccccc12.Cl` [Compound 161], the “Antibacterial activity μg/mL, E.f820” value in assay [1] was 62.5 µg/mL. The “Antibacterial activity μg/mL, S.a” value in assay [2] (Example 2 compounds (linear cationic peptides), vancomycin-susceptible strain) is 15.6 µg/mL.
Turning to “Methyl(2S,5S)-2-(4-allyloxybenzyl)-3-aza-5-(9H-9-fluorenylmethylcarboxamido)-8-guanidino-4-oxononanoate hydrochloride [Compound 76]”, the “Antibacterial activity (MIC μg/mL)” value in assay [2] (Example 2 compounds, 18 h, 37° C.) is 15.6 µg/mL.
